Results taken from patent US20230140926A1, “IONIC LIQUID, SOLVENT, PREPARATION, AND TRANSDERMALLY ABSORBABLE AGENT” (Kyushu University, National University Corporation, priority 2020, published 2023).

Key:
[1] = tested on: stratum corneum; test: Influence on stratum corneum of skin (FTIR); design: species or system pig; conditions: for Absorbance; CH2 asymmetric / Absorbance; CH2 symmetric / shift (cm^−1), CH2 asymmetric / shift (cm^−1), CH2 symmetric / shift (intensity), CH2 asymmetric / shift (intensity), CH2 symmetric: stratum corneum lipid; for Absorbance; CH2 asymmetric / Absorbance; CH2 symmetric / Absorbance; C═O amide-II / Absorbance; NH—C═O amide-I: FTIR, 30 minutes immersion; for shift (cm^−1), CH2 asymmetric / shift (cm^−1), CH2 symmetric / shift (intensity), CH2 asymmetric / shift (intensity), CH2 symmetric / shift (cm^−1), C═O amide-II / shift (cm^−1), NH—C═O amide-I / shift (intensity), C═O amide-II / shift (intensity), NH—C═O amide-I: versus untreated control; for Absorbance; C═O amide-II / Absorbance; NH—C═O amide-I / shift (cm^−1), C═O amide-II / shift (cm^−1), NH—C═O amide-I / shift (intensity), C═O amide-II / shift (intensity), NH—C═O amide-I: stratum corneum protein
Protocol: Frozen skin of a pig (YMPC, Hoshino Test Animal Breeding Co., Ltd.) was returned to room temperature, dried skin was warmed at 60° C. for from 60 to 120 seconds, and the epidermal layer was peeled from the skin. […] The isolated stratum corneum was washed with water and dried for an additional 24 hours. Sections of stratum corneum were immersed in test samples (IPM, Ionic Liquids 1, 2, 4, tween-80, DGME or PBS) in glass tubes for 30 minutes at room temperature. Stratum corneum sheets were washed with 20% ethanol and dried for 1 hour. The stratum corneum sheets were analyzed by Fourier transform infrared spectroscopy (FTIR) spectroscopy. Untreated stratum corneum was used as a control.

[2] = Evaluation of solubility of ionic liquids in a variety of solvents (visual); type: physicochemical; conditions: 50:50 by weight, room temperature
Protocol: The solubility of ionic liquids in a variety of solvents was evaluated at room temperature. Specifically, Ionic Liquids 1 to 3 were placed in a glass tube with respective solvents and mixed by stirring with a vortex mixer for from 1 to 2 minutes. The ratio of Ionic Liquids 1 to 3 to the corresponding solvents was 50:50 by weight. The solubility and transparency of the obtained liquids (liquid samples) were visually observed and evaluated according to the following criteria.
∘: Ionic liquid is dissolved uniformly and the clarity of the liquid sample is high
Δ: Ionic liquid is uniformly dissolved, but liquid sample is cloudy
×: Ionic liquid and solvent are separated, and the ionic liquid is not dissolved in the solvent. The same evaluation was performed for intermediate 2 ([EDMPC][Cl]) as a comparison.

Row | Molecule | Absorbance; CH2 asymmetric [1] [cm⁻¹] | Absorbance; CH2 symmetric [1] [cm⁻¹] | shift (cm^−1), CH2 asymmetric [1] [cm⁻¹] | shift (cm^−1), CH2 symmetric [1] [cm⁻¹] | shift (intensity), CH2 asymmetric [1] | shift (intensity), CH2 symmetric [1] | Absorbance; C═O amide-II [1] [cm⁻¹] | Absorbance; NH—C═O amide-I [1] [cm⁻¹] | shift (cm^−1), C═O amide-II [1] [cm⁻¹] | shift (cm^−1), NH—C═O amide-I [1] [cm⁻¹] | shift (intensity), C═O amide-II [1] | shift (intensity), NH—C═O amide-I [1] | Solubility and transparency in Dimethyl sulfoxide ([2]; solvent Dimethyl sulfoxide) | Solubility and transparency in Ethanol ([2]; solvent Ethanol) | Solubility and transparency in Isopropyl alcohol ([2]; solvent Isopropyl alcohol) | Solubility and transparency in Isopropyl myristate ([2]; solvent Isopropyl myristate)
1 | CCOCCOCCO [DGME, diethylene glycol monoethyl ether] | 2918 | 2853 | 0 | 2 | 2.37 | 1.25 | 1648 | 1541 | 1 | 4 | 18.00 | 14.31 |  |  |  | 
2 | CCCCCCCCCCCCCC(=O)OC(C)C [IPM, isopropyl myristate] | 2920 | 2853 | 2 | 2 | 1.72 | 1.08 | 1648 | 1539 | 1 | 2 | 13.95 | 10.59 |  |  |  | 
3 | CCCCCCCCCCCCCC(=O)OC[C@H](COP(=O)(OCC)OCC[N+](C)(C)C)OC(=O)CCCCCCCCCCCCC (stereo partly shown) [Intermediate 2, EDMPC chloride] |  |  |  |  |  |  |  |  |  |  |  |  | ◯ | ◯ | ◯ | ◯
4 | tween-80 | 2920 | 2853 | 2 | 2 | 2.80 | 1.30 | 1648 | 1542 | 1 | 5 | 19.01 | 16.14 |  |  |  | 
